Where only a bound is given, the exact number is not on record here.

Here are results for eleven molecules from US10738074B2, “Cyclic di-nucleotide compounds as STING agonists” (Merck Sharp & Dohme Corp., priority 2015, dated 2020).

Test [1] has as its target full-length WT STING (Homo sapiens (Human), UniProt Q86WV6, H232R). The test can be described thus: 3H-cGAMP filtration binding assay (WT STING). To be noted: competition with tritiated cGAMP, WT STING membrane. From the text:
The ability of compounds to bind STING is quantified by their ability to compete with tritiated cGAMP ligand for human STING receptor membrane using a radioactive filter-binding assay. The binding assay employs STING receptor obtained from Trichoplusia ni cell membranes (Tni; Expression Systems, cat #94-002F, www.expressionsystems.com) overexpressing full-length WT STING prepared in-house and tritiated cGAMP ligand also purified in-house.
The basic WT STING filtration assay protocol is as follows:
The filter plates were then dried at 55° C. for 30 min using a pressurized VWR oven before 30 uL of Ultima GoldF scintillate was added to each well. Tritium levels for each reaction well were then measured using a PerkinElmer TopCount plate reader.
(§1) After normalization to controls, the percent activity for each compound concentration was calculated by measuring the amount of remaining radioactivity. The plot of percent activity versus the log of compound concentration was fit with a 4-parameter dose response equation to calculate EC50 values.

Test [2] deals with THP1 cells. The test can be described thus: IFN-β secretion in THP1 cell culture (5 h). It counts as cell-based, human. The note with it: IFN-β secretion, THP1 cells, 5 h, 30 μM; for activation at 30 µM: Homo sapiens, THP-1, 5 h, read-out: % Effect at 30 μM relative to 2′3′-cGAMP. As to the method: The ability of compounds to stimulate the secretion of interferon-beta from THP1 cells was measured using a human IFN-β AlphaLISA kit (Perkin Elmer, Cat. No. AL265F). The basic protocol is as follows:
A Labcyte Echo 550 acoustic dispenser was used to transfer 120 nL of compound dissolved in DMSO into the wells of an empty, sterile 384-well microplate, (Corning, Cat. No. 3712). THP1 cells (American Type Culture Collection, Cat. No. TIB202) previously frozen in Recovery Medium (Life Technologies, Cat. No. 12648-010) were thawed and immediately diluted 10-fold into 37° C. assay medium (RPMI 1640+L-Glutamine & phenol red, Life Technologies, Cat. No. 11875-085; 0.5% heat inactivated fetal bovine serum, Sigma Aldrich, Cat. No. F4135; 1 mM Sodium Pyruvate, Life Technologies, Cat. No. 11360-070; lx non-essential amino acids; Life Technologies, Cat. No. 11140-050). The cell viability and count was ascertained using a Beckman Coulter V-Cell XR cell counter. The cells suspension was centrifuged at 200×g for 5 min at RT. Cells were resuspended to a density of 0.8×10^6/mL in 37° C. assay medium. Subsequent liquid transfers were performed using either a Matrix electronic multichannel pipette or an Agilent Bravo Automated Liquid Handling Platform.
The assay was started by dispensing 40 μL of the previously prepared cell suspension into the wells of the plate containing compounds. After 5 h incubation at 37° C., 5% CO2 in a humidified atmosphere, the plate of cells and compounds was centrifuged at 200×g for 5 min at RT. From each well, 5 μL of supernatant was transferred into corresponding wells of a white 384-well plate (Perkin Elmer, Cat. No. 6005620). To these supernatant-containing wells was added 10 μL of 5× Anti-Analyte Acceptor beads (50 μg/mL of AlphaLISA HiBlock Buffer) and incubated for 30 min at RT while shaking on an orbital plate shaker. To each well was added 10 μL of 5× Biotinylated Antibody Anti-analyte (5 nM in AlphaLISA HiBlock Buffer) and incubated on an orbital plate shaker for 60 min at RT or overnight at 4° C. To each well was added 25 μL of 2× SA-Donor beads (80 μg/mL in AlphaLISA HiBlock Buffer) and incubated for 30-45 min at RT in the dark while shaking on an orbital plate shaker. The plate was then read on a Perkin Elmer Envision (λex=680 nm, λem=[…]). The percent effect of the AlphaLISA signal at each compound concentration was calculated based on 30 uM cGAMP positive controls and 0.3% DMSO negative controls. The plot of percent effect versus the log of compound concentration was fit with a 4-parameter concentration response equation to calculate EC50 values. The test compounds were tested at concentrations 30000, 10000, 3333, 1111, 370.4, 123.4, 41.2, 13.7, 4.6, and 1.5 nM with 0.3% residual DMSO.
Compounds of the disclosure were evaluated for IFN-β secretion in THP1 cell culture as described above. The following table tabulates the biological data for these compounds as percent activation relative to 2′3′-cGAMP at the 30 μM concentration.

Test [3] concerns the target full-length HAQ STING (Homo sapiens (Human), UniProt Q86WV6, G230A/H232R/R293Q/R71H). The test can be described thus: 3H-cGAMP filtration binding assay (HAQ STING). To be noted: competition with tritiated cGAMP, HAQ STING membrane.
Description: The ability of compounds to bind STING is quantified by the ability to compete with tritiated cGAMP ligand for human STING receptor membrane using a radioactive filter-binding assay. The binding assay employs STING receptor obtained from Hi-Five cell membranes overexpressing full-length HAQ STING prepared in-house and tritiated cGAMP ligand also purified in-house.
The ability of compounds to bind STING is quantified by their ability to compete with tritiated cGAMP ligand for human STING receptor membrane using a radioactive filter-binding assay. The binding assay employs STING receptor obtained from Trichoplusia ni cell membranes (Tni; Expression Systems, cat #94-002F, www.exrpressionsystems.com) overexpressing full-length HAQ STING prepared in-house and tritiated cGAMP ligand also purified in-house.
The basic HAQ STING filtration assay protocol is as follows:
Compound and membrane then preincubated for 60 min at RT to allow compound binding to equilibrate. Following equilibration, 8 nM of [^3H] c-GAMP ligand was prepared by diluting into assay buffer, and 50 uL of this working stock was then manually added to each well of the assay plate. […] The filter plates were then dried at 55° C. for 30 min using a pressurized VWR oven before 30 uL of Ultima GoldF scintillate was added to each well. Tritium levels for each reaction well were then measured using a PerkinElmer TopCount plate reader.
as §1

full-length WT STING, sequence (Q86WV6 other isoform, or with tags, fused parts or gaps H232R (already in the parent)): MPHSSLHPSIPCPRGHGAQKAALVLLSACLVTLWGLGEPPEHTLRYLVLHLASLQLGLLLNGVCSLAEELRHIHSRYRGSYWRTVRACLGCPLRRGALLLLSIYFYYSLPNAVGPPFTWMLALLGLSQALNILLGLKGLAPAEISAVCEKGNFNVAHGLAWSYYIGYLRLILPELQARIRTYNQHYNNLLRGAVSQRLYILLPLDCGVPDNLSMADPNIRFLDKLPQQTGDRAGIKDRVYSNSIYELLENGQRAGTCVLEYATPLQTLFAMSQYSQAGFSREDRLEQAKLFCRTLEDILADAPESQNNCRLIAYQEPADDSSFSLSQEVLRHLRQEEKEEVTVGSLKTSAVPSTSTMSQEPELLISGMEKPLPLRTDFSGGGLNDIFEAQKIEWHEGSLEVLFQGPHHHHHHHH
full-length HAQ STING, sequence (Q86WV6 other isoform, or with tags, fused parts or gaps, stated change not applied): as the sequence (Q86WV6 other isoform, or with tags, fused parts or gaps H232R (already in the parent)) above, with R71H, G230A, R293Q counted along it

Regarding `Nc1nc2c(nnn2[C@@H]2O[C@@H]3COP(=O)(S)O[C@@H]4[C@H](F)[C@@H](COP(=O)(S)O[C@@H]2[C@@H]3F)O[C@H]4n2nnc3c(=O)[nH]c(N)nc32)c(=O)[nH]1` (stereo partly drawn) [Example 31, 3,3′-[(1S,6R,8R,9S,14R,16R,17R,18R)-17,18-difluoro-3,11-dioxido-3,11-disulfanyl-2,4,7,10,12,15-hexaoxa-3,11-diphosphatricyclo[12.2.1.1^6,9]octadecane-8,16-diyl]bis(5-amino-3,6-dihydro-7H-[1,2,3]triazolo[4,5-d]pyrimidin-7-one)], in test [1], the EC50 (usually the concentration giving half of the maximal effect) was under 1 nM. Further, in test [2], the activation at 30 µM is 57%.
On to `Nc1nc2c(ncn2[C@@H]2O[C@@H]3COP(O)(=S)O[C@@H]4[C@H](F)[C@@H](COP(O)(=S)O[C@@H]2[C@@H]3F)O[C@H]4n2cnc3c(=O)[nH]c(N)nc32)c(=O)[nH]1` (single isomer, unassigned) [Example 23], for which the EC50 in test [1] was 4 nM. In addition, in test [2], the “% Effect at 30 μM relative to 2′3′-cGAMP” value worked out at 135%.
In test [1], `Nc1nc2c(ncn2[C@@H]2O[C@@H]3COP(O)(=S)O[C@@H]4[C@H](F)[C@@H](COP(O)(=S)O[C@@H]2[C@@H]3F)O[C@H]4n2cnc3c(=O)[nH]c(N)nc32)c(=O)[nH]1` (single isomer, unassigned) [Example 24] registered a concentration for a half-maximal effect (EC50) of 1.2 nM. In addition, the “% Effect at 30 μM relative to 2′3′-cGAMP” value in test [2] is on record as 84%.
Take `Nc1nc2c(ncn2[C@@H]2O[C@@H]3COP(=O)(O)O[C@@H]4C[C@@H](COP(=O)(O)O[C@@H]2[C@@H]3O)O[C@H]4n2cnc3c(N)ncnc32)c(=O)[nH]1` [Example 1, 2-amino-9-[(1R,6R,8R,9R,14S,16R,18R)-16-(6-amino-9H-purin-9-yl)-3,11,18-trihydroxy-3,11-dioxido-2,4,7,10,12,15-hexaoxa-3,11-diphosphatricyclo[12.2.1.1^6,9]octadec-8-yl]-1,9-dihydro-6H-purin-6-one]: the EC50 in test [3] turned out to be 19 nM. For the same molecule, the activation at 30 µM in test [2] stood at 121%.
On to `Nc1nc2c(ncn2[C@@H]2O[C@@H]3COP(O)(=S)O[C@@H]4[C@H](F)[C@@H](COP(O)(=S)O[C@@H]2[C@@H]3F)O[C@H]4n2cnc3c(=O)[nH]c(N)nc32)c(=O)[nH]1` (single isomer, unassigned) [Example 22], for which the EC50 in test [1] was under 1 nM. Further, the “% Effect at 30 μM relative to 2′3′-cGAMP” value in test [2] is recorded as 129%.
Consider `Nc1nc2c(ncn2[C@@H]2O[C@@H]3COP(=O)(O)O[C@@H]4[C@H](F)[C@@H](COP(=O)(O)O[C@@H]2[C@@H]3O)O[C@H]4n2cnc3c(N)ncnc32)c(=O)[nH]1` [Example 4, 2-amino-9-[(1S,6R,8R,9R,14R,16R,17R,18R)-16-(6-amino-9H-purin-9-yl)-17-fluoro-3,11,18-trihydroxy-3,11-dioxido-2,4,7,10,12,15-hexaoxa-3,11-diphosphatricyclo[12.2.1.1^6,9]octadec-8-yl]-1,9-dihydro-6H-purin-6-one], for which the EC50 in test [3] was 1.8 nM. In test [2], the activation at 30 µM is 104%.
In turn, `Nc1nc2c(ncn2[C@@H]2O[C@@H]3COP(=O)(O)O[C@@H]4C[C@@H](COP(=O)(O)O[C@@H]2C3)O[C@H]4n2cnc3c(N)ncnc32)c(=O)[nH]1` [Example 12, 2-amino-9-[(1R,6S,8R,9R,14S,16R)-16-(6-amino-9H-purin-9-yl)-3,11-dihydroxy-3,11-dioxido-2,4,7,10,12,15-hexaoxa-3,11-diphosphatricyclo[12.2.1.1^6,9]octadec-8-yl]-1,9-dihydro-6H-purin-6-one] displayed an EC50 in test [3] of 674 nM. Further, the activation at 30 µM in test [2] came out at 50%.
As to `Nc1nc2c(ncn2[C@@H]2O[C@@H]3COP(=O)(O)O[C@@H]4[C@H](O)[C@@H](COP(=O)(O)O[C@@H]2[C@@H]3F)O[C@H]4n2cnc3c(N)ncnc32)c(=O)[nH]1` [Example 3, 2-amino-9-[(1R,6R,8R,9S,14R,16R,17R,18R)-16-(6-amino-9H-purin-9-yl)-18-fluoro-3,11,17-trihydroxy-3,11-dioxido-2,4,7,10,12,15-hexaoxa-3,11-diphosphatricyclo[12.2.1.1^6,9]octadec-8-yl]-1,9-dihydro-6H-purin-6-one], the EC50 in test [3] worked out at 3.6 nM. Further, in test [2], the activation at 30 µM was determined as 150%.
The corresponding values for `[N-]=[N+]=N[C@H]1[C@H]2OP(=O)(O)OC[C@H]3O[C@@H](n4cnc5c(N)ncnc54)[C@H](OP(=O)(O)OC[C@H]1O[C@H]2n1cnc2c(=O)[nH]c(N)nc21)[C@@H]3O` [Example 5, 2-amino-9-[(1R,6S,8R,9R,14R,16R,17R,18R)-16-(6-amino-9H-purin-9-yl)-18-azido-3,11,17-trihydroxy-3,11-dioxido-2,4,7,10,12,15-hexaoxa-3,11-diphosphatricyclo[12.2.1.1^6,9]octadec-8-yl]-1,9-dihydro-6H-purin-6-one] are under 1 nM and 145%.
The molecule `C[C@H]1OP(=O)(O)O[C@@H]2[C@H](F)[C@@H](COP(=O)(O)O[C@@H]3[C@H](O)[C@@H]1O[C@H]3n1cnc3c(N)ncnc31)O[C@H]2n1cnc2c(=O)[nH]c(N)nc21` [Example 7, 2-amino-9-[(1R,6R,8R,9S,13R,14S,16R,17R,18R)-16-(6-amino-9H-purin-9-yl)-18-fluoro-3,11,17-trihydroxy-13-methyl-3,11-dioxido-2,4,7,10,12,15-hexaoxa-3,11-diphosphatricyclo[12.2.1.16,9]octadec-8-yl]-1,9-dihydro-6H-purin-6-one] had an EC50 in test [3] of 45.2 nM. The activation at 30 µM in test [2] was determined as 59%.
Taken in the same sequence, the figures for `Nc1nc2c(ncn2[C@@H]2O[C@@H]3COP(=O)(O)O[C@@H]4[C@H](N)[C@@H](COP(=O)(O)O[C@@H]2[C@@H]3O)O[C@H]4n2cnc3c(N)ncnc32)c(=O)[nH]1` [Example 33, 2-amino-9-[(1R,6R,8R,9R,14S,16R,17R,18R)-17-amino-16-(6-amino-9H-purin-9-yl)-3,11,18-trihydroxy-3,11-dioxido-2,4,7,10,12,15-hexaoxa-3,11-diphosphatricyclo[12.2.1.1^6,9]octadec-8-yl]-1,9-dihydro-6H-purin-6-one] were 1.6 nM and 140%.
